Measurements published in ChEMBL document CHEMBL4138094, “Discorhabdin alkaloids from Antarctic Latrunculia spp. sponges as a new class of cholinesterase inhibitors” (Eur J Med Chem, 2017).

Tests used:
[1] = biological target: Acetylcholinesterase (Electrophorus electricus) (UniProt O42275); test: (§1) Inhibition of electric eel AChE using acetylthiocholine iodide as substrate measured over 5 mins by Ellman's method
Acetylcholinesterase [2] = biological target: T1, Acetylcholinesterase (Electrophorus electricus, UniProt O42275); test: as §1
Acetylcholinesterase [3] = biological target: T2, Acetylcholinesterase (Homo sapiens, UniProt P22303); test: Inhibition of human AChE using acetylthiocholine iodide as substrate measured over 5 mins by Ellman's method
[4] = biological target: Cholinesterase (Equus caballus) (UniProt P81908); test: (§2) Reversible competitive inhibition of equine serum BChE using acetylthiocholine iodide as substrate measured over 5 mins by Ellman's method
Cholinesterase [5] = biological target: T3, Cholinesterase (Equus caballus, UniProt P81908); test: as §2
Acetylcholinesterase [6] = biological target: T1, Acetylcholinesterase; test: Reversible competitive inhibition of electric eel AChE using acetylthiocholine iodide as substrate measured over 5 mins by Dixon plot analysis
Acetylcholinesterase [7] = biological target: T2, Acetylcholinesterase; test: Reversible competitive inhibition of human AChE using acetylthiocholine iodide as substrate measured over 5 mins by Dixon plot analysis
Cholinesterase [8] = biological target: T3, Cholinesterase; test: Inhibition of equine serum BChE using acetylthiocholine iodide as substrate measured over 5 mins by Dixon plot analysis
[9] = biological target: Acetylcholinesterase (Electrophorus electricus) (UniProt O42275); test: Inhibition of electric eel AChE using acetylthiocholine iodide as substrate at 8.43 uM measured over 5 mins by Ellman's method relative to control
[10] = Toxicity in Balb/c mouse hemidiaphragm assessed as effect on directly evoked muscle twitch amplitudes at 8.43 uM after 60 mins; assay type: tissue-based, Diaphragm; settings: 1 h
[11] = Toxicity in Balb/c mouse hemidiaphragm assessed as effect on indirectly evoked muscle twitch amplitudes at 8.43 uM after 60 mins; assay type: tissue-based, Diaphragm; settings: 1 h
[12] = Toxicity in Balb/c mouse hemidiaphragm assessed as effect on amplitude of endplate potentials after 30 to 60 mins mins in presence of conotoxin GIIIB; assay type: tissue-based, Diaphragm
[13] = Toxicity in Balb/c mouse hemidiaphragm assessed as effect on endplate potentials half decay after 30 to 60 mins mins in presence of conotoxin GIIIB; assay type: tissue-based, Diaphragm
[14] = Toxicity in Balb/c mouse hemidiaphragm assessed as effect on amplitude of directly evoked tetanic muscle contractions at 8.43 uM after 60 mins; assay type: tissue-based, Diaphragm; settings: 1 h
[15] = Toxicity in Balb/c mouse hemidiaphragm assessed as effect on amplitude of indirectly evoked tetanic muscle contractions at 8.43 uM after 60 mins; assay type: tissue-based, Diaphragm; settings: 1 h
[16] = biological target: Cholinesterase (Equus caballus) (UniProt P81908); settings: 1 mM
Description: Inhibition of equine serum BChE at 1 mM

Acetylcholinesterase (Electrophorus electricus), sequence (O42275 24-633 limits assumed): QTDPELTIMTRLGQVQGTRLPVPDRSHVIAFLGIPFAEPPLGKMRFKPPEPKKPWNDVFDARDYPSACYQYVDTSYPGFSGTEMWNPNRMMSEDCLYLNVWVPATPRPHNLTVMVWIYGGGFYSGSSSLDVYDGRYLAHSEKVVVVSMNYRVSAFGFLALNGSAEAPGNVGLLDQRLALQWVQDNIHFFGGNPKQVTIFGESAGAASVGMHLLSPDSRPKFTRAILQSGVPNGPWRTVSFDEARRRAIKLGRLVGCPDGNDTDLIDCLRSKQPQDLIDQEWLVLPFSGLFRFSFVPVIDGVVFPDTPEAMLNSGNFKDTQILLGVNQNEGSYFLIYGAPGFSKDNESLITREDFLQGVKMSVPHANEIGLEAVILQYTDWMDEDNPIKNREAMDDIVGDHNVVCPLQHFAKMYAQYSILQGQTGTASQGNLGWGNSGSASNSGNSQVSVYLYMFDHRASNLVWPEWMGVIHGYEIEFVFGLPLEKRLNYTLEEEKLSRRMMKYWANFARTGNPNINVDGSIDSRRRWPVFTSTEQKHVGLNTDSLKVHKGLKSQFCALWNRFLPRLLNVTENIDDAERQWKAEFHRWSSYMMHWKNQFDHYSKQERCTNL
T2 sequence (P22303 whole entry): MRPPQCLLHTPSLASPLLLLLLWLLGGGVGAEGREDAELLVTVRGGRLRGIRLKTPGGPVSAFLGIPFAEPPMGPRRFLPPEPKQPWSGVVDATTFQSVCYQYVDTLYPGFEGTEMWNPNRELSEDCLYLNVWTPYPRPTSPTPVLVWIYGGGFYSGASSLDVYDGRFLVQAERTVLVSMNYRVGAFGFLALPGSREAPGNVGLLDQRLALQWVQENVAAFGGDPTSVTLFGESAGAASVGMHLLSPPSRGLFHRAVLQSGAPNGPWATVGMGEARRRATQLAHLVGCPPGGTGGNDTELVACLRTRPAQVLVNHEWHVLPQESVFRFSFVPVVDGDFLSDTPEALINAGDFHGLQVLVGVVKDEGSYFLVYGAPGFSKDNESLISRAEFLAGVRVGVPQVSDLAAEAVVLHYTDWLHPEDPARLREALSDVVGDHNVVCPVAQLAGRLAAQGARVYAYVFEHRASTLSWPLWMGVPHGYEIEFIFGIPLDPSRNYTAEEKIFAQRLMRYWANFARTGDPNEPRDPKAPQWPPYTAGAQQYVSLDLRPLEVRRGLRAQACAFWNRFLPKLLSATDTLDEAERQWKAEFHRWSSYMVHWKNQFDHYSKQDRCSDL
T1 sequence (O42275 whole entry): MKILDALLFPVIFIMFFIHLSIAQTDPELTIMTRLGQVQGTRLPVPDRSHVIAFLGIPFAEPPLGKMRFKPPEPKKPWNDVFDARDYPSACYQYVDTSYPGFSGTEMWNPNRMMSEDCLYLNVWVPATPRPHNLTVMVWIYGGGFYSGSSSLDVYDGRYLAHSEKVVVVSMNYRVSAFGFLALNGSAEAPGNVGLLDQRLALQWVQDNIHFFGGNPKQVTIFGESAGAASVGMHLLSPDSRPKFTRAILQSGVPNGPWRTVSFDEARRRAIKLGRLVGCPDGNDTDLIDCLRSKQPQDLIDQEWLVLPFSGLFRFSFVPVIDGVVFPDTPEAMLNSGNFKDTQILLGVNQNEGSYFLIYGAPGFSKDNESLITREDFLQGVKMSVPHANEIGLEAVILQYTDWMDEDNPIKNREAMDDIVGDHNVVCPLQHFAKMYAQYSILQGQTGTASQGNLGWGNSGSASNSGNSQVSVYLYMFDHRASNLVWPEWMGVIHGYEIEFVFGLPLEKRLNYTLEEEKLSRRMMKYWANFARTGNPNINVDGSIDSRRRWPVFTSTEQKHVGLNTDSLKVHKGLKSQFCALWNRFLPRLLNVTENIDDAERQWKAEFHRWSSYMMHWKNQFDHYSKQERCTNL
Cholinesterase (Equus caballus), sequence (P81908 whole entry): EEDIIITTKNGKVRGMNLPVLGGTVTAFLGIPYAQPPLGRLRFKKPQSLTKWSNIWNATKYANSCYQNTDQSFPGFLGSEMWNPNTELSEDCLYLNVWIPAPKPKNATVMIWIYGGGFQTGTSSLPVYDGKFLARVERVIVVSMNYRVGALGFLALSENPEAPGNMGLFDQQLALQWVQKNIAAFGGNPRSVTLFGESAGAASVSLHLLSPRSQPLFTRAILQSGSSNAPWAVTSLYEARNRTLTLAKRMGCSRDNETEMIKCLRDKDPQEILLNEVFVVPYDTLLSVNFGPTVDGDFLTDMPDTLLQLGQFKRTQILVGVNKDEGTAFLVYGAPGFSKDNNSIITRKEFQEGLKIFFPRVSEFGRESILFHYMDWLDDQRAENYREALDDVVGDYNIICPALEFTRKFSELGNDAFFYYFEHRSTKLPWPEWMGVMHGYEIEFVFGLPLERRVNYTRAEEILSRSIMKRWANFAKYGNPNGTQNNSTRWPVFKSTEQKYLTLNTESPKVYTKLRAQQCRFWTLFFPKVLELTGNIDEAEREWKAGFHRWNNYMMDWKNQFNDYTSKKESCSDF
T3 sequence (P81908 whole entry): as above

With `O=C(O)C(F)(F)F.O=C1CC[C@@]2(C=CNC3=C2C2=NCCc4c[nH]c(c42)C3=O)C=C1Br` the inhibition [1] was “Dose-dependent effect”, the IC50 (Acetylcholinesterase [2]) was 1.3 µM and the IC50 (Acetylcholinesterase [3]) was 116 µM. The inhibition (Acetylcholinesterase [3]) was “Dose-dependent effect”, the inhibition [4] was “Dose-dependent effect” and the IC50 (Cholinesterase [5]) was 7 µM. The Ki (Acetylcholinesterase [6]) was 1.6 µM, the Ki (Acetylcholinesterase [7]) was 56.2 µM and the Ki (Cholinesterase [8]) was 5 µM. The inhibition [9] was 80%, the Activity [10] was “Non-Toxic” and the Activity [11] was “Non-Toxic”. For the same compound, the Activity [12] was “Non-Toxic”, the Activity [13] was “Non-Toxic” and the Activity [14] was “Non-Toxic”. For the same compound, the Activity [15] was “Non-Toxic”.

For `O=C1C2=C(C3=NCCc4c[nH]c1c43)C1(C=CN2)C=C(Br)C(O)C(Br)=C1` (stereo not given), the inhibition [1] was “Dose-dependent effect”, the IC50 (Acetylcholinesterase [2]) was 14.5 µM and the IC50 (Acetylcholinesterase [3]) was 152 µM. For the same compound, the inhibition (Acetylcholinesterase [3]) was “Dose-dependent effect”, the inhibition [4] was “Dose-dependent effect” and the IC50 (Cholinesterase [5]) was 15.8 µM. It also gave a Ki (Acetylcholinesterase [6]) of 3.5 µM, a Ki (Acetylcholinesterase [7]) of 98 µM and a Ki (Cholinesterase [8]) of 17.5 µM.

`CNC(=O)Oc1ccc2c(c1)[C@]1(C)CCN[C@@H]1N2` showed an IC50 (Acetylcholinesterase [2]) of 3 µM, an IC50 (Acetylcholinesterase [3]) of 14.5 µM and an IC50 (Cholinesterase [5]) of 28.5 µM.

For `O=C1C2=C3C4=[N+](CCc5c[nH]c1c54)[C@@H]1C(=O)C=C4S[C@@H](C[C@@]43[C@H]1O)N2` [DISCORHABDIN L], the inhibition [1] was “Dose-dependent effect”, the IC50 (Acetylcholinesterase [2]) was 25.7 µM and the IC50 (Acetylcholinesterase [3]) was 158 µM. The inhibition (Acetylcholinesterase [3]) was “Dose-dependent effect”, the inhibition [4] was “Dose-dependent effect” and the IC50 (Cholinesterase [5]) was 531 µM. It also gave a Ki (Acetylcholinesterase [6]) of 15 µM.

With `O=C1C=C2S[C@H]3C[C@]2(C=C1Br)C1=C(N3)C(=O)c2[nH]cc3c2C1=NCC3` [DISCORHABDIN B] the inhibition [1] was “Dose-dependent effect”, the IC50 (Acetylcholinesterase [2]) was 5.7 µM and the IC50 (Acetylcholinesterase [3]) was 49.4 µM. For the same compound, the inhibition (Acetylcholinesterase [3]) was “Dose-dependent effect”, the inhibition [4] was “Dose-dependent effect” and the IC50 (Cholinesterase [5]) was 137 µM. It also gave a Ki (Acetylcholinesterase [6]) of 1.9 µM, a Ki (Acetylcholinesterase [7]) of 22.8 µM and a Ki (Cholinesterase [8]) of 76 µM.

In the case of `COc1ccc2c3c1O[C@H]1C[C@@H](O)C=C[C@@]31CCN(C)C2`, the inhibition [16] is reported as 80.3%.
